The term IC50 denotes the point on the concentration scale where inhibition reaches its midpoint. Read a low IC50 as greater potency. For orientation: inhibition means the percentage by which the read-out fell short of the control.

Assay in all cases: biochemical
The target in assay [1] is T1, EeAChE (AChE from Electrophorus electricus) (Electrophorus electricus, UniProt O42275).
T1 construct: purchased Sigma-Aldrich (São Paulo, Brazil)
It counts as biochemical. The following applies: modified Ellman's method, 37 °C, samples 1 to 100 µM, average ± standard deviation of three experiments. The procedure:
(§1) In order to determine the anticholinesterase activity, we used Ellman’s method modified for a 96-wells plate. The velocities of substrate hydrolysis by AChE and BChE as function of sample concentration were evaluated for EeAChE and EqBChE. AChE, BChE and Ellman’s reagent (DTNB) were prepared in phosphate buffer (100 mM, pH 7.4). Acetylthiocholine iodide (ATCI), and butyrylthiocholine iodide (BTCI) were prepared in distilled water. Stock samples (100 mM) were prepared in dimethyl sulphoxide (DMSO) and appropriately diluted in distilled water to the desired concentrations immediately before use. All solutions were kept on ice during the experiment. All experiments were performed at 37 ± 1 °C.
(§2) The mixture was incubated for 10 min. Then, ATCI (0.5 mM) or BTCI (1.0 mM) was added to all wells and the plate was read immediately for 5 min in a spectrophotometer (Spectramax 340PC, Molecular Device®). The spontaneous and sample (100 µM) induced hydrolysis of the substrate were evaluated by replacing enzyme for buffer. […] The solvent (DMSO) was evaluated at the highest concentration (0.2%) used in the experiment. All concentrations refer to final concentrations. The samples were tested in at least 5 concentrations. […] The values of absorbance/min were calculated by the software Softmax Pro 6.4®. Inhibition values were calculated through non-linear regression with the software GraphPadPrism 5 (GraphPad software®, San Diego, CA, USA). […] EeAChE (EC.3.1.1.7), EqBChE (EC3.1.1.8), ATCI, BTCI and DTNB were purchased from Sigma-Aldrich (São Paulo, Brazil).

The target of assay [2] is T2, EqBChE (butyrylcholinesterase from equine serum) (Equus caballus, UniProt P81908).
T2 construct: butyrylcholinesterase from equine serum (EqBChE); purchased Sigma-Aldrich (São Paulo, Brazil); host or cells: equine serum
T2 sequence (P81908 whole entry): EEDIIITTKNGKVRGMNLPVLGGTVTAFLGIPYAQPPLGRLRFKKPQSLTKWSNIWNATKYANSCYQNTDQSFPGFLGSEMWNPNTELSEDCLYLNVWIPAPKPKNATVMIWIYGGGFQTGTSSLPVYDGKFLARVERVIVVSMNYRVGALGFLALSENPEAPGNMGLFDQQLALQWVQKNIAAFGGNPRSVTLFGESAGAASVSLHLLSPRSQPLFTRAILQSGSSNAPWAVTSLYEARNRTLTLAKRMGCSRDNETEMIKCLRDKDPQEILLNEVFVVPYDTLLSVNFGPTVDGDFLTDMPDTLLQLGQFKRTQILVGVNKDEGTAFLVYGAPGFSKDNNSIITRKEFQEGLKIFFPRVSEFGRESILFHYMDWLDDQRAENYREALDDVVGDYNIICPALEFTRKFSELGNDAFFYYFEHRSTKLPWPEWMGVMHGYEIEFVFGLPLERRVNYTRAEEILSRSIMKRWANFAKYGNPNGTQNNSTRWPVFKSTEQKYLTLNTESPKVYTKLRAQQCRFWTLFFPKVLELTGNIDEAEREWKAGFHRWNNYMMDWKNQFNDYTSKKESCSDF
Format: biochemical. The following applies: modified Ellman's method, 37 °C, samples 1 to 100 µM, average ± standard deviation of three experiments. The procedure: as §1, §2
For orientation: Ellman's reagent forms a yellow product with free thiols.

Another assay deals with T3, EeAChE (Electrophorus electricus, UniProt O42275).
T3 construct: purchased Sigma-Aldrich (São Paulo, Brazil)
T3 sequence (O42275 24-633): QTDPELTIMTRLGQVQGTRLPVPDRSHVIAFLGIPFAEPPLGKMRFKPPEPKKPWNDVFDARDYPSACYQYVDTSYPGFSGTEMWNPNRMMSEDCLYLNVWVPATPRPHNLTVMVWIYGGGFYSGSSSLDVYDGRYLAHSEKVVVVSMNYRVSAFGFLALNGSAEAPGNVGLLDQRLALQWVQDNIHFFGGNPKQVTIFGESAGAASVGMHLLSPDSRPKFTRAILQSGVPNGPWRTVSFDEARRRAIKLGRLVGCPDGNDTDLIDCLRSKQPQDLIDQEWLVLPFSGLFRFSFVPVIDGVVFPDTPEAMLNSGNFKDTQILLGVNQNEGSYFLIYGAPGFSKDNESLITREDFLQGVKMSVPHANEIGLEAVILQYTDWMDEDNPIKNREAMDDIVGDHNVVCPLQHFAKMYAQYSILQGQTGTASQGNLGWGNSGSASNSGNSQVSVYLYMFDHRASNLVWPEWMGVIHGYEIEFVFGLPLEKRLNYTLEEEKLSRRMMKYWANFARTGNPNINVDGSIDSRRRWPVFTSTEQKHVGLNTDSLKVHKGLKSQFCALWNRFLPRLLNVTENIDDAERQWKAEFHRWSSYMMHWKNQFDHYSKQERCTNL
The following applies: EeAChE 33 nM, ACh 5 mM, final concentration of the inhibitor 10 mM, 25 °C, triplicate; read-out: AChE inhibition (NMR test).

T1 sequence (O42275 24-633): as above

In assay [1], `CC1(C)CC(=O)c2cc3cc4c(cc3nc2C1)OCO4` [Compound 3, 7,8-Dihydro-7,7-dimethyl-1,3-dioxolo[4,5-b]acridin-9(6h)-one] came in with an IC50 of 51.5 ± 2.47 µM. As for `COC(=O)c1cc2cc3c(cc2nc1C)OCO3` [Compound 4, Methyl 6-Methyl-[1,3]dioxolo[4,5-g]quinone-7-carboxilate], in assay [1], the IC50 was greater than 100 µM and the “IC50 EeAChE” value was “not able to inhibit”. Further, the “IC50 EqBChE” value in assay [2] is on record as “not able to inhibit”. Take `O=C(O)c1cc2cc3c(cc2[nH]c1=O)OCO3` [Compound 5, Acid 5,6-Diidro-6-oxo-1,3-dioxolo[4,6g] quiniline-7-carboxilic]: the 50% inhibitory concentration (IC50) in assay [1] stood at 14.2 ± 1.15 µM. Still for that read-out and setting: to `O=c1[nH]c(=O)c2cc3cc4c(cc3nc2[nH]1)OCO4` [Compound 6, 1,3-Dioxolo [4,5-g] pirimido [4,5-b] quinoline-7,9 (6H,8H)-dione] belongs 32.1 ± 3.53 µM; to `CCOC(=O)c1cc2cc3c(cc2[nH]c1=O)OCO3` [Compound 7, Ethyl 5,6-Dehidro-6-oxo-[1,3] dioxolano [4,5-g] quinoline-7-carboxilate], 62.8 ± 2.02 µM.

On to `CC1(C)CC(=NNC(=N)N)c2cc3cc4c(cc3nc2C1)OCO4` [Compound 8, Guanylhydrazone of 7,7-Dimethyl-7,8-dihydro-[1,3]dioxolo[4,5-b]acridin-9(6h)-one], for which the figures for the IC50 in assay [1] and in assay [2] were 8.5 ± 0.39 µM and 15.2 ± 0.75 µM, respectively. Also, the inhibition at 10000 µM at EeAChE is 73.9 ± 6.26%.

For the origin of these results see PMC6720848, “Synthesis of New Quinoline-Piperonal Hybrids as Potential Drugs against Alzheimer’s Disease” (International Journal of Molecular Sciences, 2019).
